Reference: PubChem BioAssay AID2740 (NMMLSC, 2010)
“And” between values parts separate entries of the source, which are not always exact repeats. Equal entries are not always repeated. The source made the active and inactive calls.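 Rule for the calls: active = compounds whose fitted half-maximal concentration for changing the GFP signal is at or below a set limit; inactive = the rest.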

Tested on: not listed separately
Test: TOR pathway RPL19A-GFP modulators, concentration series – cell-based, S. cerevisiae, flow cytometry, MLPCN hits, dose response (AID 2740);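 for GFP fluorescence, lower = active: background is signal of the same compound in parental non-GFP s288c yeast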
Conditions: S. cerevisiae RPL19A-GFP strain, flow cytometry fluorescence, 3 h; at 33 µM (top of the series)

With `Cc1ccccc1[C@]1(C)ON(c2ccccc2C(F)(F)F)C1=O` the GFP fluorescence, lower = active (kMESF (background-subtracted)) was 42.8 (inactive).
With `O=C1c2cccc3c([N+](=O)[O-])ccc(c23)C(=O)N1CCc1ccccn1` the GFP fluorescence, lower = active (kMESF (background-subtracted)) was 47.1 (inactive).
For `O=C1N(c2ccccc2C(F)(F)F)OC1(Cc1ccccc1)c1ccccc1` (configuration not stated), the GFP fluorescence, lower = active (kMESF (background-subtracted)) was 45.8 (inactive).
With `Cc1ccc2[nH]c(C)c(/C=C/c3cc[n+](C)cc3)c2c1` the GFP fluorescence, lower = active (kMESF (background-subtracted)) was 37.4 (inactive).
With `CCCCc1ccc(/C=C2/C(=O)ON=C2c2ccccc2)s1` the GFP fluorescence, lower = active (kMESF (background-subtracted)) was 44.1 (inactive).
For `Cc1cc(C(=O)Nc2nc(-c3ccccn3)cs2)ccc1[N+](=O)[O-]`, the GFP fluorescence, lower = active (kMESF (background-subtracted)) was 48.9 (inactive).

Tested on: S. cerevisiae RPL19A-GFP strain, flow cytometry fluorescence, 3 h
Test: as above
Conditions: not given

First: O=C1NC(=O)N(Cc2ccc(F)cc2)C(=O)/C1=C/c1cccs1
Second: Cc1ccc(/C=C2\C(=O)NC(=S)N(c3ccccc3F)C2=O)s1
The EC50 of the first is 3.4-fold higher: 4.65 µM for the first, 1.36 µM for the second.

Going from `O=C(Nc1nc(-c2ccccn2)cs1)c1cc2ccccc2o1` to `CC(Oc1ccc(Br)cc1)C(=O)Nc1nc(-c2ccccn2)cs1` (configuration not stated), the EC50 rises from 11.7 µM to 20.5 µM (1.8-fold). The first is the more potent here.

`CC(C)(C)n1nc(-c2ccc(F)cc2)c2c(N)ncnc21` and `COc1ccc2c(c1)c1nnc(SC)nc1n2C` are within 1.5-fold of each other in EC50: 0.98 µM for the first, 0.681 µM for the second.

Compared with `CCOC(=O)COc1ccc2ccccc2c1/C=C/[N+](=O)[O-]`, `CC(=O)SC(C[N+](=O)[O-])c1cn(C(C)=O)c2ccccc12` (configuration not stated) is 2.3-fold higher in EC50: 5.36 µM for the first, 12.4 µM for the second. The first is the more potent here.

First: O=C(/C=C/c1ccccn1)c1ccc(Br)cc1O
Second: O=C(/C=C/c1ccccn1)c1cc(Br)ccc1O
The EC50 of the first is 3-fold higher: 26.8 µM for the first, 8.96 µM for the second.

Going from `CCOC(=O)c1cc(-c2ccc(/C=C3/C(=O)NC(=O)C(C#N)=C3C)o2)ccc1Cl` to `Cc1ccc(NC(=O)c2cc(N3C(=O)C=CC3=O)ccc2Cl)cc1C`, the EC50 rises from 3.35 µM to 7.49 µM (2.2-fold).

Going from `COc1ccc(N/N=C(\C#N)C(N)=O)cc1` to `CCOc1ccc(N/N=C(/C#N)C(N)=O)cc1`, the EC50 rises from 2.96 µM to 4.55 µM (1.5-fold). The first is the more potent here.

`CCCCS(=O)(=O)/C=C\C=C/S(=O)(=O)CCCC` and `CCOC(=O)C(C(=O)OCC)C(C(=O)OCC)N1CCOCC1` (configuration not stated) are within 1.5-fold of each other in EC50: 12.5 µM for the first, 14.2 µM for the second.

Going from `C[C@H]1C[C@@H](C)C(=O)[C@@H]([C@H](O)CC2CC(=O)NC(=O)C2)C1` to `O=C1C=CC(=O)N1c1ccc(N2CCCCC2)cc1`, the EC50 rises from 0.57 µM to 5.05 µM (8.9-fold).

Going from `CC1=NNC(=O)/C1=C\c1cn(-c2ccccc2)nc1-c1ccccc1` to `CC1=NNC(=O)/C1=C\c1cn(-c2ccccc2)nc1-c1cccs1`, the EC50 falls from 11.4 µM to 3.14 µM (3.6-fold). The second is the more potent here.

`O=C(Nc1ccccc1)c1nnsc1S(=O)(=O)c1ccc(Cl)cc1` and `Cc1cccc(C)c1NC(=O)C(Cl)C(=O)c1ccccc1` (configuration not stated) are within 1.5-fold of each other in EC50: 2.5 µM for the first, 1.9 µM for the second.

First: O=C(Nc1ccc(Cl)cc1Cl)c1cccc(N2C(=O)C=CC2=O)c1
Second: O=C1C=CC(=O)N1c1cccc(-c2ccccc2)c1
The EC50 of the first is 3.6-fold higher: 9.64 µM for the first, 2.7 µM for the second. The second is the more potent here.

Compared with `C#CCOCCOCCOCCNc1nc(N2CCN(C(=O)CCCCCCCCCCNC(=O)[C@H](CCCCN)n3cc(CCO)nn3)CC2)nc(N2CCN(C(=O)CCCCCCCCCCNC(=O)[C@H](CCCN=C(N)N)n3cc(C[C@@H](C)CC)nn3)CC2)n1`, `O=C(OCC(=O)N1CCN(C(=O)c2ccco2)CC1)c1cc(-c2cccc(Br)c2)nc2ccccc12` is 3.1-fold lower in EC50: 10 µM for the first, 3.18 µM for the second. The second is the more potent here.

Compared with `ClC(Cl)(c1nnnn1-c1ccccc1)c1nnnn1-c1ccccc1`, `O=C1Oc2ccccc2C(=O)/C1=C/c1ccccc1O` is 2.4-fold higher in EC50: 4.62 µM for the first, 11 µM for the second. The first is the more potent here.

`O=[N+]([O-])c1ccc(O)c(/C=N/Nc2ccccn2)c1` and `O=[N+]([O-])c1cc(Cl)c2cccnc2c1O` are within 1.5-fold of each other in EC50: 16.6 µM for the first, 13 µM for the second.

Going from `Cn1ncc(S(=O)(=O)Cc2ccccc2)c(Cl)c1=O` to `CCn1c(=O)c(C(=O)Nc2nc3ccccc3[nH]2)c(O)c2ccccc21`, the EC50 falls from 14.9 µM to 3.3 µM (4.5-fold). The second is the more potent here.

`O=C(Nc1ccc(Cl)cc1)ON=C1CCCC1` and `CC(Oc1ccc(Cl)cc1)C(=O)NNC(=S)NC(=O)c1ccco1` (configuration not stated) are within 1.5-fold of each other in EC50: 10.8 µM for the first, 11 µM for the second.

Compared with `O=c1cc(CSc2ccc(Cl)cc2)nc(-c2ccccn2)[nH]1`, `O=C(/C=C/c1cccc(Cl)c1)c1nc2ccccc2[nH]1` is 3.2-fold lower in EC50: 12.9 µM for the first, 4.06 µM for the second. The second is the more potent here.

`CCc1nc2ccccc2c(=O)n1NC(=O)c1c(O)c2ccccc2n(CC)c1=O` and `CN1CCN(C(=O)c2cc(COc3c(F)cccc3F)on2)CC1c1ccccc1` (configuration not stated) are within 1.5-fold of each other in EC50: 7.44 µM for the first, 8.03 µM for the second.

`Cc1ccc(N/N=C(\C#N)C(N)=S)c(C)c1` and `COc1cccc2sc(Nc3nc(-c4ccccn4)cs3)nc12` are within 1.5-fold of each other in EC50: 5 µM for the first, 3.82 µM for the second.

In the case of `O=C(OCC(=O)N1CCN(C(=O)c2ccco2)CC1)c1cc(-c2ccccc2)nc2ccccc12`, the EC50 is reported as 6.98 µM and 3.89 µM.
